Literature values in patent US20200057081A1, “System and Method for Managing Animal Cancers by Disabling the Cancer Cells Ability to Reproduce” (priority 2018, published 2020).

Columns and labels:
[1] = test system: tumors transplanted to mice
[2] = test system: cultured cancer cell lines; conditions: multiple cell lines
dynamin GTPase = target: T1, dynamin GTPase (Homo sapiens, UniProt O00429); conditions: in mammalian cells; read-out: IC50, inhibition of mitochondrial division / dynamin GTPase activity
T1 construct: host or cells: mammalian cells (not specified)
T1 sequence (O00429 whole entry): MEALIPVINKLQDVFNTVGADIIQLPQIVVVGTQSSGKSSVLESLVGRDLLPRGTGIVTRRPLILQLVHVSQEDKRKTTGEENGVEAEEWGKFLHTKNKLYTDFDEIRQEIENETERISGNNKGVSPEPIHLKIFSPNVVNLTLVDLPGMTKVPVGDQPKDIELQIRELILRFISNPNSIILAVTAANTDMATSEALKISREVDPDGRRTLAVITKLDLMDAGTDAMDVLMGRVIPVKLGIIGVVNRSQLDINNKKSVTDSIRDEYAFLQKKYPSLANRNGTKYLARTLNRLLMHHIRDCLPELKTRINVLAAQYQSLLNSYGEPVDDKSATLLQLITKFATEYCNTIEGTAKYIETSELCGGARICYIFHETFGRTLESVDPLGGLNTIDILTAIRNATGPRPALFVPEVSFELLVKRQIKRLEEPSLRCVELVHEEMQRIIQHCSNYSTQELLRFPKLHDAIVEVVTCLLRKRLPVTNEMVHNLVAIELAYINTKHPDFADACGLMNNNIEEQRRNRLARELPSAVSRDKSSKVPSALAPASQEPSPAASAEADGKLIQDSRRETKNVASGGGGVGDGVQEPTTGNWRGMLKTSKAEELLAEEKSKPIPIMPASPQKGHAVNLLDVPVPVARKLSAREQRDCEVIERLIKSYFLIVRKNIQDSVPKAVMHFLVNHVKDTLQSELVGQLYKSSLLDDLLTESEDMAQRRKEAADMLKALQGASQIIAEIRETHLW

mitochondria = conditions: Bid-activated, Bax/Bak-dependent, in vitro
Drp1/Fis1 interaction = Drp1/Fis1 interaction (Homo sapiens, UniProt O00429)
Chain of Drp1/Fis1 interaction (O00429 whole entry): as above

O=C(O)C(=O)CBr [3-bromopyruvate]
tumor growth [1]: slow down the growth

CC1=C2C[C@H]3[C@@H](CC=C4C[C@@H](O)CC[C@@]43C)[C@@H]2CC[C@]12O[C@@H]1C[C@H](C)CN[C@H]1[C@H]2C [Cyc]
anti-proliferative effect [2]: modest anti-proliferative effect

CS(=O)(=O)c1ccc(C(=O)Nc2ccc(Cl)c(-c3ccccn3)c2)c(Cl)c1 [GDC-0449]
anti-proliferative effect [2]: modest anti-proliferative effect

COc1cc(-n2c(=S)[nH]c3ccccc3c2=O)c(Cl)cc1Cl [Mdivi 1]
IC50 (dynamin GTPase): ~50 µM
cytochrome c release from mitochondria (mitochondria): block Bid-activated Bax/Bak-dependent cytochrome c release

C=C1CC[C@H](O)C/C1=C/C=C1\CCC[C@]2(C)[C@@H]([C@H](C)CCCC(C)C)CC[C@@H]12 [VD3]
anti-proliferative effect [2]: modest anti-proliferative effect

CN(C)c1ccc(C2Nc3ccc4ccccc4c3C3=C2C(=O)CC(C)(C)C3)cc1Br (stereo not shown) [compound 968]
inhibition of cancer cell growth (cancer cells; cancer cells): highly specific for inhibiting cancer cell growth
effect on normal cells (cancer cells; normal (nontransformed) cells): little effect

Cc1ncc(C[n+]2csc(CCO)c2C)c(=O)[nH]1 [oxythiamine]
tumor growth [1]: slow down the growth

P110: polypeptide P110, DLLPRGT, inhibitor of Drp1
selectivity for Drp1/Fis1 interaction over Drp1 interaction with other ligands (Drp1/Fis1 interaction): more selective for blocking Drp1/Fis1 interaction
